Experimental data taken from patent publication US6802957B2, “Self-referencing enzyme-based microsensor and method of use” (priority 2001, dated 2004).

Test system: pancreatic HIT cells (β-cell clusters)
Type: cell-based, hamster
Protocol: For trypsinization and splitting, trypsin-EDTA solution was added to a culture flask and incubated for 30 s while triturating with a transfer pipette. Serum was added to stop the digestive action of trypsin. Supernatant was removed after centrifugation at 1000 rpm for 2 min. Culture medium was added, and cells plated into glass bottom petri dishes (35 mm diameter, Matek, Ashland, Mass.) for incubation and subsequent observation.
Cell clusters, approximating to spheroids, appeared approximately two weeks after splitting. Their size ranged from 70 μm to 300 μm in diameter, depending on the time in culture.
A glucose microsensor was positioned adjacent to the cluster and self-referenced perpendicularly to the contour of the expected glucose gradient. The glucose sensor was self-referenced at 0.2 Hz between 60 and 80 μm (Δr of 20 μm) from the cluster surface to avoid H2O2 boundary artifacts. Flux measurements were done in HEPES-buffered solution containing 118 mM NaCl, 5.4 mM KCl, 2.4 mM CaCl2, 1.2 mM MgSO4, 1.2 mM KH2PO4, and 5 mM NaHCO3. All measurements were made with 5 mM glucose in the medium. To ensure that the apparent glucose signal was due to the glucose gradient and not the oxygen gradient, oxygen was provided by a ˜10 μm pipette located 10 μm from the cell cluster and approximately 50 μm from the glucose sensor to reverse the biological oxygen gradient. […] In situ calibration of the sensor was performed immediately after the flux measurements. Data were only accepted if sensor drift was less than ±5% over the experimental period, which was typically 30 min. All data were reported as means ±SEM unless otherwise mentioned.
The glucose sensor was self-referenced at 0.2 Hz between 60 and 80 μm (Δr of 20 μm) from the cluster surface. The aliquot of FCCP was dropped on the meniscus of the medium to minimize disturbance of the existing glucose gradient. All measurements were performed with 5 mM glucose in the bath.
Glucose metabolism was further studied with rotenone, an inhibitor of NADH-dependent respiration in mitochondria. […]

Row | Molecule | decrease in the level of glucose consumption (10 μM rotenone, after 10 min, 5 mM glucose in bath, oxygen source present, four clusters) [%] | glucose flux relative to the basal condition | initial increase in glucose flux [%]
1 | C=C(C)[C@H]1Cc2c(ccc3c2O[C@@H]2COc4cc(OC)c(OC)cc4[C@@H]2C3=O)O1 [Rotenone, rotenone] | 74±5 |  | 
2 | trifluoromethoxy carbonylcyanide phenylhydrazine [FCCP] |  | 56±6 % of the basal condition | 93±16
